# Read-outs that look alike come from different tables or passages of the source.
# Assay: Stability and biodistribution of prodrugs in vivo (HPLC of plasma and tissues)
# Set-up: species or system mice (CD-1 nude; BALB/C where indicated)
# Conditions: 50 mg/kg i.p. or i.v., CD-1 nude mice
# [1] = mouse, cecum, 50 mg/kg, CECUM, 30 min, read-out: stability: percentage of material observed as intact prodrug, cecum
# [2] = mouse, kidney, 50 mg/kg, KIDNEY, 30 min, read-out: stability: percentage of material observed as intact prodrug, kidney
# [3] = mouse, large intestine, 50 mg/kg, LARGE INTESTINE, 30 min, read-out: stability: percentage of material observed as intact prodrug, large intestine
# [4] = mouse, liver, 50 mg/kg, LIVER, 30 min, read-out: stability: percentage of material observed as intact prodrug, liver (converted)
# [5] = mouse, plasma, 50 mg/kg, PLASMA, 30 min, read-out: concentration of prodrug in plasma
# [6] = mouse, plasma, 50 mg/kg, PLASMA, 30 min, read-out: stability: percentage of material observed as intact prodrug, plasma
# [7] = mouse, plasma, 50 mg/kg, PLASMA, 120 min, read-out: concentration of prodrug in plasma
# [8] = mouse, plasma, 50 mg/kg, PLASMA, 120 min, read-out: stability: percentage of material observed as intact prodrug, plasma
# [9] = mouse, small intestine, 50 mg/kg, SMALL INTESTINE, 30 min, read-out: stability: percentage of material observed as intact prodrug, small intestine
# [10] = mouse, small intestine, 50 mg/kg, SMALL INTESTINE, 120 min, read-out: stability: percentage of material observed as intact prodrug, small intestine
# [11] = mouse, tumor, 50 mg/kg, TUMOR, 30 min, read-out: stability: percentage of material observed as intact prodrug, tumor
"concentration of prodrug in cecum (CECUM, 30 min) [nmol/g]","concentration of prodrug in kidney (KIDNEY, 30 min) [nmol/g]","concentration of prodrug in large intestine (LARGE INTESTINE, 30 min) [nmol/g]","concentration of prodrug in liver (LIVER, 30 min) [nmol/g]","concentration of prodrug in small intestine (SMALL INTESTINE, 30 min) [nmol/g]","concentration of prodrug in small intestine (SMALL INTESTINE, 120 min) [nmol/g]","concentration of prodrug in tumor (TUMOR, 30 min) [nmol/g]",remaining at 0.5 h [1] [%],remaining at 0.5 h [2] [%],remaining at 0.5 h [3] [%],remaining at 0.5 h [4] [%],concentration at 0.5 h [5] [µM],remaining at 0.5 h [6] [%],concentration at 2 h [7] [µM],remaining at 2 h [8] [%],remaining at 0.5 h [9] [%],remaining at 2 h [10] [%],remaining at 0.5 h [11] [%],Structure (SMILES),other results
6.0,175.8,12.2,770.3,48.2,55.6,6.0,96,98,93,98,41.5,99,4.2,100,83,68,96,"Cc1nc2ccc3ccc(CNc4ccc(C(=O)N[C@@H](CCC(=O)O)C(=O)N[C@@H](CCC(=O)O)C(=O)O)c(F)c4)cc3c2c(=O)[nH]1 [Prodrug 1, N-(N-(4(((1,2-dihydro-3-methyl-1-oxobenzo(F)quinazolin-9-yl)methyl)amino)-2-fluorobenzoyl)-L-glutam-1-yl)-L-glutamic acid]","concentration of prodrug in cecum (CECUM, 120 min): 1.2 nmol/g; concentration of prodrug in kidney (KIDNEY, 120 min): 70.3 nmol/g; concentration of prodrug in large intestine (LARGE INTESTINE, 120 min): 1.0 nmol/g; concentration of prodrug in liver (LIVER, 120 min): 579.8 nmol/g; concentration of prodrug in spleen (SPLEEN, 30 min): 23.4 nmol/g; concentration of prodrug in spleen (SPLEEN, 120 min): 1.8 nmol/g; concentration of prodrug in tumor (TUMOR, 120 min): 1.2 nmol/g; remaining at 2 h (mouse, cecum, 50 mg/kg, CECUM, 120 min, read-out: stability: percentage of material observed as intact prodrug, cecum): 76%; remaining at 2 h (mouse, kidney, 50 mg/kg, KIDNEY, 120 min, read-out: stability: percentage of material observed as intact prodrug, kidney): 97%; remaining at 2 h (mouse, large intestine, 50 mg/kg, LARGE INTESTINE, 120 min, read-out: stability: percentage of material observed as intact prodrug, large intestine): 100%; remaining at 2 h (mouse, liver, 50 mg/kg, LIVER, 120 min, read-out: stability: percentage of material observed as intact prodrug, liver): 97%; remaining at 0.5 h (mouse, spleen, 50 mg/kg, SPLEEN, 30 min, read-out: stability: percentage of material observed as intact prodrug, spleen): 100%; remaining at 2 h (mouse, spleen, 50 mg/kg, SPLEEN, 120 min, read-out: stability: percentage of material observed as intact prodrug, spleen): 100%; remaining at 2 h (mouse, tumor, 50 mg/kg, TUMOR, 120 min, read-out: stability: percentage of material observed as intact prodrug, tumor): 76%"
2.7,9.0,5.9,42.0,170.2,17.6,2.7,96,96,93,96,33,100,0.3,93,91,47,98,"Cc1nc2ccc3ccc(CNc4ccc5c(c4)CN([C@@H](CCC(=O)O)C(=O)N[C@@H](Cc4ccccc4)C(=O)O)C5=O)cc3c2c(=O)[nH]1 [Prodrug 2, N-((S)-4-carboxy-2-(5-(((1,2-dihydro-3-methyl-1-oxoxbenzo(F)quinazolin-9-yl)methyl)amino)-1-oxo-2-isoindolinyl)butanoyl)-L-phenylalanine]","concentration of prodrug in kidney (KIDNEY, 90 min): 1.3 nmol/g; concentration of prodrug in kidney (KIDNEY, 180 min): 0.2 nmol/g; concentration of prodrug in large intestine (LARGE INTESTINE, 90 min): 0.7 nmol/g; concentration of prodrug in large intestine (LARGE INTESTINE, 180 min): 1.3 nmol/g; concentration of prodrug in liver (LIVER, 90 min): 9.1 nmol/g; concentration of prodrug in liver (LIVER, 180 min): 0.8 nmol/g; concentration (PLASMA, 30 min, 50 mg/kg, 30 min, read-out: concentration of prodrug in plasma): 22.1 µM; remaining at 1.5 h (mouse, kidney, 50 mg/kg, KIDNEY, 90 min, read-out: stability: percentage of material observed as intact prodrug, kidney): 98%; remaining at 3 h (mouse, kidney, 50 mg/kg, KIDNEY, 180 min, read-out: stability: percentage of material observed as intact prodrug, kidney): 100%; remaining at 1.5 h (mouse, large intestine, 50 mg/kg, LARGE INTESTINE, 90 min, read-out: stability: percentage of material observed as intact prodrug, large intestine): 60%; remaining at 3 h (mouse, large intestine, 50 mg/kg, LARGE INTESTINE, 180 min, read-out: stability: percentage of material observed as intact prodrug, large intestine): 52%; remaining at 1.5 h (mouse, liver, 50 mg/kg, LIVER, 90 min, read-out: stability: percentage of material observed as intact prodrug, liver): 100%; remaining at 3 h (mouse, liver, 50 mg/kg, LIVER, 180 min, read-out: stability: percentage of material observed as intact prodrug, liver): 100%; concentration at 1.5 h (mouse, plasma, 50 mg/kg, PLASMA, 90 min, read-out: concentration of prodrug in plasma): 5.5 µM; remaining at 1.5 h (mouse, plasma, 50 mg/kg, PLASMA, 90 min, read-out: stability: percentage of material observed as intact prodrug, plasma): 98%; concentration at 3 h (mouse, plasma, 50 mg/kg, PLASMA, 180 min, read-out: concentration of prodrug in plasma): 3.5 µM; remaining at 3 h (mouse, plasma, 50 mg/kg, PLASMA, 180 min, read-out: stability: percentage of material observed as intact prodrug, plasma): 97%"

# Source: US6319702A, “Nucleic acids encoding mutant human carboxypeptidase A enzymes” (Glaxo Wellcome, Inc., priority 1993, dated 2001)
